According to PubChem BioAssay (NCI):
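Cells were grown in 96-well plates and exposed to each compound for 48 hours at five concentrations; endpoints were interpolated linearly between bracketing concentrations, or set to the highest concentration if not reached. Abbreviation: GI50, concentration required for 50% inhibition of growth. TGI is the concentration that stops growth completely.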

Tests used:
Assay in all cases: NCI anticancer screen, dose series, 48 h
[1] = test system: MCF7 breast
[2] = test system: HCT-116 colon
[3] = test system: NCI-H522 lung
[4] = test system: UO-31 renal
[5] = test system: A498 renal
[6] = test system: CAKI-1 renal
[7] = test system: NCI-H23 lung
[8] = test system: SK-MEL-5 melanoma
[9] = test system: HOP-62 NSCLC
[10] = test system: EKVX NSCLC

Row | SMILES | TGI [1] | TGI [2] | TGI [3] | TGI [4] | TGI [5] | TGI [6] | TGI [7] | TGI [8] | TGI [9] | TGI [10] | GI50 [1] | GI50 [2] | GI50 [3] | GI50 [4] | GI50 [5] | GI50 [6] | GI50 [7] | GI50 [8] | GI50 [9] | GI50 [10]
1 | Cn1c(=O)c2[nH]c(SCCN3CCOCC3)nc2n(C)c1=S | > 100 µM | > 100 µM | > 100 µM | > 100 µM | > 100 µM | > 100 µM | > 100 µM | > 100 µM | > 100 µM | > 100 µM |  |  |  |  |  |  |  |  |  | 
2 | CCOc1ccc(/C(C=O)=C(\Cl)c2ccc(OC)cc2)cc1 | > 100 µM | > 100 µM | > 100 µM | > 100 µM | > 100 µM | > 100 µM | > 100 µM | > 100 µM | > 100 µM | > 100 µM |  |  |  |  |  |  |  |  |  | 
3 | C=C/C(C)=C/C[C@]1(C)[C@H](C)[C@@H](OC(=O)CCC)[C@H](O)[C@@]23C(=C[C@H](OC)C[C@@H]12)[C@@H](OC(=O)CCC)O[C@H]3OC(C)=O | 2.91 µM | 1.96 µM | 0.741 µM | 0.586 µM | 0.645 µM | 2.64 µM | 2.83 µM | 2.03 µM | 3.62 µM | 2.61 µM | 1.16 µM | 0.495 µM | 0.239 µM | 0.212 µM | 0.223 µM | 1.32 µM | 1.19 µM | 0.704 µM | 1.62 µM | 0.987 µM
4 | C1=C/COCc2cc(ccc2OCCN2CCCC2)Nc2nccc(n2)-c2ccc(o2)COC/1 | 3.84 µM | 10.6 µM | 6.13 µM | 7.06 µM | 3.57 µM | 3.28 µM | 5.24 µM | 4.07 µM | 6.91 µM | 5.89 µM | 0.734 µM | 0.757 µM | 1.84 µM | 1.06 µM | 1.52 µM | 0.46 µM | 1.61 µM | 1.79 µM | 2.28 µM | 1.88 µM
5 | CN(C)c1ccc(/C=C2\N=C(c3ccccc3)N(c3cc(C(F)(F)F)ccc3Cl)C2=O)cc1 | > 100 µM | > 100 µM | > 100 µM | > 100 µM | > 100 µM | > 100 µM | > 100 µM | > 100 µM | > 100 µM | > 100 µM | 99.8 µM | > 100 µM | > 100 µM | > 100 µM | > 100 µM | > 100 µM | > 100 µM | > 100 µM | > 100 µM | > 100 µM
6 | COc1ccc(C(=O)c2cc3c(N)c(C(=O)Nc4ccccc4)sc3nc2C)cc1 | > 100 µM | > 100 µM | > 100 µM | > 100 µM | 0.645 µM | > 100 µM | > 100 µM | 10.6 µM | > 100 µM | > 100 µM | 0.373 µM | 0.635 µM | 1.89 µM | 2.64 µM | 0.184 µM | 0.656 µM | 2.54 µM | 0.459 µM | 1.69 µM | 5.42 µM
7 | O=c1cc(-c2ccc(O)cc2)oc2cc(O[C@@H]3O[C@H](CO)[C@@H](O)[C@H](O)[C@H]3O)cc(O)c12 | > 100 µM | > 100 µM | > 100 µM | > 100 µM | > 100 µM | 0.718 µM | > 100 µM | > 100 µM | > 100 µM | > 100 µM |  |  |  |  |  |  |  |  |  | 
8 | O=C(/C=C/c1ccc(O)c(O)c1)NCc1c[nH]c2ccccc12 | > 100 µM | > 100 µM | > 100 µM | > 100 µM | > 100 µM | > 100 µM | > 100 µM | > 100 µM | > 100 µM | > 100 µM | 70.3 µM | 62.2 µM | 44.9 µM | 36.9 µM | 32.4 µM | 27.9 µM | 85.8 µM | 32.9 µM | 44.7 µM | 41.5 µM
9 | Cc1cc(Cl)ccc1OCC(=O)Nc1nc(N)nc(N)n1 | > 100 µM | > 100 µM | > 100 µM | > 100 µM | > 100 µM | > 100 µM | > 100 µM | > 100 µM | > 100 µM | > 100 µM |  |  |  |  |  |  |  |  |  | 
10 | CCN1CCN(Cc2ccc(NC(=O)Nc3nc4ccc(Oc5ccnc(C(=O)NC)c5)cc4s3)cc2C(F)(F)F)CC1 | 2.89 µM | 3.45 µM | 3.59 µM | 3.4 µM | 3.54 µM | 4.15 µM | 3.86 µM | 2.9 µM | 3.78 µM | 6.67 µM | 1.23 µM | 1.73 µM | 1.68 µM | 1.83 µM | 1.83 µM | 1.94 µM | 1.83 µM | 1.52 µM | 1.95 µM | 2.01 µM
11 | CN1CCN(Cc2ccc(NC(=O)c3cncc(C#Cc4cnc(N)cc4C#N)c3)cc2C(F)(F)F)CC1 | 16.2 µM | 9.85 µM | 17.7 µM | 6.95 µM | 3.67 µM | 16.7 µM | 13.7 µM | 7.11 µM | 13.1 µM | 14.7 µM | 3.64 µM | 1.43 µM | 3.69 µM | 2 µM | 0.227 µM | 3.78 µM | 2.24 µM | 2.29 µM | 3.33 µM | 3.4 µM
